Several values for one entry are separate records, joined by “and”; a condition that tells them apart may be missing. Equal entries are not always repeated. Inconclusive results and toxic doses are left out.

Data on 23 compounds can be found in PubChem BioAssay AID330 (DTP/NCI, 2004).

This experiment concerns P388 leukemia ip, CD2F1 mice, survival T/C. In words: NCI In Vivo Anticancer Drug Screen. Data for tumor model P388 Leukemia (intraperitoneal) in CD2F1 (CDF1) mice. To be noted: endpoint: median survival time, higher = longer survival. The method in brief: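 Mice carrying the transplanted tumor received test compound or vehicle. Survival was recorded in each group, and the value is the treated-group measurement divided by that of the vehicle-treated control group.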

The mark [1] stands for this setting: dose: 50.0 mg/kg/injection, schedule: Q01DX009 (ip), vehicle: saline with Tween-80.
Where [2] appears, read: dose: 50.0 mg/kg/injection, schedule: Q01DX005 (ip), vehicle: saline with Tween-80.
The mark [3] stands for this setting: dose: 60.0 mg/kg/injection, schedule: Q01DX005 (ip), vehicle: saline with Tween-80.
Where [4] appears, read: dose: 120.0 mg/kg/injection, schedule: Q01DX005 (ip), vehicle: saline with Tween-80.
The mark [5] stands for this setting: dose: 100.0 mg/kg/injection, schedule: Q01DX009 (ip), vehicle: saline with Tween-80.
Where [6] appears, read: dose: 200.0 mg/kg/injection, schedule: Q01DX009 (ip), vehicle: saline with Tween-80.
The mark [7] stands for this setting: dose: 100.0 mg/kg/injection, schedule: Q04DX003 (ip), vehicle: saline with Tween-80.

`COC(=O)C12CCCC1(C(=O)OC)N2N1C(=O)c2ccccc2C1=O` (centres undefined): the T/C was 100 % of control (dose: 50.0 mg/kg/injection, schedule: Q01DX005 (ip), vehicle: Klucel (hydroxypropylcellulose) (HPC)); 100 % of control (dose: 100.0 mg/kg/injection, schedule: Q01DX005 (ip), vehicle: Klucel (hydroxypropylcellulose) (HPC)); 105 % of control (dose: 200.0 mg/kg/injection, schedule: Q01DX005 (ip), vehicle: Klucel (hydroxypropylcellulose) (HPC)).
Take `CC1OCN2CCCCC12` (centres undefined): the T/C runs as follows: (dose: 25.0 mg/kg/injection, schedule: Q01DX005 (ip), vehicle: saline) 107 % of control; (dose: 50.0 mg/kg/injection, schedule: Q01DX005 (ip), vehicle: saline) 118 % of control.
With `Nc1cc(Cl)c2[nH]cnc2n1`, the T/C is 102 % of control (dose: 25.0 mg/kg/injection, schedule: Q01DX005 (ip), vehicle: distilled water + Tween-80); 111 % of control (dose: 50.0 mg/kg/injection, schedule: Q01DX005 (ip), vehicle: distilled water + Tween-80); 152 % of control (dose: 200.0 mg/kg/injection, schedule: Q01DX005 (ip), vehicle: distilled water + Tween-80).
In the case of `O=c1nc(Oc2ccccc2)nc2ncccn12`, the T/C is, setting by setting: (dose: 6.25 mg/kg/injection, schedule: Q01DX009 (ip), vehicle: saline with Tween-80) 101 % of control; (dose: 12.5 mg/kg/injection, schedule: Q01DX009 (ip), vehicle: saline with Tween-80) 112 % of control; under setting [1], 114 % of control.
With `COC(=O)C1(CC(=O)c2cccc([N+](=O)[O-])c2)NC(=S)NC(=O)C1C#N` (centres undefined), the T/C (dose: 60.0 mg/kg/injection, schedule: Q01DX005 (ip), vehicle: suspension in saline) was 100 % of control; the T/C (dose: 120.0 mg/kg/injection, schedule: Q01DX005 (ip), vehicle: suspension in saline) was 90 % of control; the T/C (dose: 240.0 mg/kg/injection, schedule: Q01DX005 (ip), vehicle: suspension in saline) was 90 % of control.
Turning to `CN(c1ncc(Cc2cnc(N(C)C3CCN(Cc4ccccc4)CC3)nc2)cn1)C1CCN(Cc2ccccc2)CC1`, the T/C was 93 % of control under setting [2]; 96 % of control (dose: 100.0 mg/kg/injection, schedule: Q01DX005 (ip), vehicle: saline with Tween-80); 92 % of control (dose: 200.0 mg/kg/injection, schedule: Q01DX005 (ip), vehicle: saline with Tween-80).
On to `COc1ccc(C(c2c(O)c3ccccc3oc2=O)N2CCOCC2)c(OC)c1` (centres undefined), for which the T/C is 99 % of control under setting [3] and 107 % of control under setting [4].
For `CC1=NN(C(=O)c2ccncc2)C(=O)C1N=Nc1ccc(S(=O)(=O)N=C(N)N)cc1` (centres undefined), the T/C is 97 % of control under setting [1], 94 % of control under setting [5] and 90 % of control under setting [6].
As to `O=C(NN=C1c2ccccc2-c2ccccc21)C(F)(F)F`, the T/C (dose: 50.0 mg/kg/injection, schedule: Q01DX005 (ip), vehicle: Klucel + Tween-80) is 100 % of control; the T/C (dose: 100.0 mg/kg/injection, schedule: Q01DX005 (ip), vehicle: Klucel + Tween-80) was 100 % of control; the T/C (dose: 200.0 mg/kg/injection, schedule: Q01DX005 (ip), vehicle: Klucel + Tween-80) is 100 % of control.
For `CN(C)CCCNC(CC#N)CCC#N` (centres undefined), the T/C was 109 % of control (dose: 50.0 mg/kg/injection, schedule: Q01DX009 (ip), vehicle: saline); 104 % of control (dose: 100.0 mg/kg/injection, schedule: Q01DX009 (ip), vehicle: saline); 109 % of control (dose: 200.0 mg/kg/injection, schedule: Q01DX009 (ip), vehicle: saline).
As for `CCOC(=O)c1c(C)[nH]c(=O)c(C#N)c1NC1CCCCC1`, the T/C was 98 % of control (dose: 25.0 mg/kg/injection, schedule: Q04DX002 (ip), vehicle: saline with Tween-80); 100 % of control (dose: 50.0 mg/kg/injection, schedule: Q04DX002 (ip), vehicle: saline with Tween-80); 92 % of control (dose: 100.0 mg/kg/injection, schedule: Q04DX002 (ip), vehicle: saline with Tween-80).
For `COc1c2occc2c(N=Cc2ccncc2)c2ccc(=O)oc12`, the T/C (dose: 100.0 mg/kg/injection, schedule: Q01DX001 (ip), vehicle: saline with Tween-80) is 88 % of control; the T/C (dose: 200.0 mg/kg/injection, schedule: Q01DX001 (ip), vehicle: saline with Tween-80) is 90 % of control; the T/C (dose: 400.0 mg/kg/injection, schedule: Q01DX001 (ip), vehicle: saline with Tween-80) was 96 % of control.
For the compound `CN(N=O)C(=O)Nc1ccc(C(=O)O)cc1`, the T/C by setting is: (dose: 25.0 mg/kg/injection, schedule: Q01DX009 (ip), vehicle: saline with Tween-80) 181 % of control; (dose: 25.0 mg/kg/injection, schedule: Q04DX003 (ip), vehicle: saline with Tween-80) 155 % of control; under setting [1], 181 % of control; (dose: 50.0 mg/kg/injection, schedule: Q04DX003 (ip), vehicle: saline with Tween-80) 180 % of control; (dose: 66.0 mg/kg/injection, schedule: Q04DX003 (ip), vehicle: saline with Tween-80) 159 % of control; under setting [7], 172 % of control and 200 % of control.
With `COC1(OC)C2(Cl)C(Cl)=C(Cl)C1(Cl)C1CCCCC12` (centres undefined), the T/C is 101 % of control under setting [3]; 102 % of control under setting [4]; 104 % of control (dose: 240.0 mg/kg/injection, schedule: Q01DX005 (ip), vehicle: saline with Tween-80).
In the case of `N#Cc1ccc(OC(=O)Nc2ccc(Cl)c(Cl)c2)cc1`, the T/C is 118 % of control (dose: 60.0 mg/kg/injection, schedule: Q01DX005 (ip), vehicle: Klucel (hydroxypropylcellulose) (HPC)); 107 % of control (dose: 120.0 mg/kg/injection, schedule: Q01DX005 (ip), vehicle: Klucel (hydroxypropylcellulose) (HPC)); 115 % of control (dose: 240.0 mg/kg/injection, schedule: Q01DX005 (ip), vehicle: Klucel (hydroxypropylcellulose) (HPC)).
As for `COc1ccc(S(N)(=O)=O)cc1C(=O)N1CCN2CCCC2C1` (centres undefined), the T/C by setting is: (dose: 60.0 mg/kg/injection, schedule: Q01DX005 (ip), vehicle: saline) 100 % of control; (dose: 120.0 mg/kg/injection, schedule: Q01DX005 (ip), vehicle: saline) 100 % of control; (dose: 240.0 mg/kg/injection, schedule: Q01DX005 (ip), vehicle: saline) 94 % of control.
On to `O=C1CSC(c2ccccc2Cl)N1c1n[nH]c(=S)s1` (centres undefined), for which the T/C (dose: 100.0 mg/kg/injection, schedule: Q04DX002 (ip), vehicle: Klucel (hydroxypropylcellulose) (HPC)) is 98 % of control; the T/C (dose: 200.0 mg/kg/injection, schedule: Q04DX002 (ip), vehicle: Klucel (hydroxypropylcellulose) (HPC)) is 100 % of control; the T/C (dose: 400.0 mg/kg/injection, schedule: Q04DX002 (ip), vehicle: Klucel (hydroxypropylcellulose) (HPC)) is 97 % of control.
In the case of `CC1CN(Cc2cc(C(C)(C)c3cc(Cl)c(O)c(CN4CC(C)OC(C)C4)c3)cc(Cl)c2O)CC(C)O1` (centres undefined), the T/C was 101 % of control (dose: 12.5 mg/kg/injection, schedule: Q01DX005 (ip), vehicle: saline with Tween-80); 101 % of control (dose: 25.0 mg/kg/injection, schedule: Q01DX005 (ip), vehicle: saline with Tween-80); 87 % of control and 91 % of control under setting [2].
On to `COC(=O)N1c2ccccc2C=C(NC(C)=O)C1C#N` (centres undefined), for which the T/C runs as follows: under setting [7], 90 % of control; (dose: 200.0 mg/kg/injection, schedule: Q04DX003 (ip), vehicle: saline with Tween-80) 100 % of control; (dose: 400.0 mg/kg/injection, schedule: Q04DX003 (ip), vehicle: saline with Tween-80) 100 % of control.
Consider `Cc1cc(O)c(O)c(Oc2cc(C)cc(O)c2O)c1`, for which the T/C is, setting by setting: (dose: 75.0 micrograms/kg/injection, schedule: Q01DX009 (ip), vehicle: saline) 100 % of control; (dose: 150.0 micrograms/kg/injection, schedule: Q01DX009 (ip), vehicle: saline) 109 % of control; (dose: 300.0 micrograms/kg/injection, schedule: Q01DX009 (ip), vehicle: saline) 102 % of control.
Regarding `CNC(=O)On1cc(Cl)cc1C#N`, the T/C (dose: 50.0 mg/kg/injection, schedule: Q01DX001 (ip), vehicle: Klucel (hydroxypropylcellulose) (HPC)) is 101 % of control and the T/C (dose: 100.0 mg/kg/injection, schedule: Q01DX001 (ip), vehicle: Klucel (hydroxypropylcellulose) (HPC)) is 118 % of control.
On to `O=C(O)Cc1c[nH]c2cc(Cl)ccc12`, for which the T/C by setting is: under setting [1], 100 % of control; under setting [5], 102 % of control; under setting [6], 105 % of control.
Regarding `COC(=O)C(O)c1ccc2c(c1)OCO2` (centres undefined), the T/C runs as follows: under setting [5], 90 % of control; under setting [6], 90 % of control; (dose: 400.0 mg/kg/injection, schedule: Q01DX009 (ip), vehicle: saline with Tween-80) 104 % of control.
